For ten molecules, TGI results are on record in PubChem BioAssay (NCI).

Among the test systems are SK-MEL-28 melanoma; DU-145 prostate; OVCAR-8 ovarian; CCRF-CEM leukemia; NCI/ADR-RES ovarian; HT29 colon; EKVX NSCLC; SF-295 CNS; LOX IMVI melanoma; PC-3 prostate; CAKI-1 renal; M14 melanoma; HS 578T breast.
Holding throughout (experiment): NCI tumour cell line growth inhibition, 48 h

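Following 48 hours of exposure in 96-well plates, responses at five concentrations were used to interpolate endpoints linearly. TGI marks complete inhibition of growth.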

Take `Nc1ccc2c(c1)nc1n2C(c2c(F)cccc2F)SC1` (stereo not given): the TGI in the assay on SK-MEL-28 melanoma, in the assay on DU-145 prostate, with OVCAR-8 ovarian, in the assay with CCRF-CEM leukemia, in the assay with NCI/ADR-RES ovarian and in the assay with HT29 colon was greater than 100 µM each time. Also, the TGI in the assay with EKVX NSCLC, in the assay on SF-295 CNS, with LOX IMVI melanoma, in the assay on PC-3 prostate, in the assay on CAKI-1 renal and with M14 melanoma was greater than 100 µM throughout. Also, the TGI with HS 578T breast is greater than 100 µM.
`CCOC(=O)CNC(=O)C(CSC(=O)N(O)c1ccc(Cl)cc1)NC(=O)CCC(N)C(=O)OCC` (stereo not given): the TGI with SK-MEL-28 melanoma, in the assay on DU-145 prostate, in the assay on OVCAR-8 ovarian, with CCRF-CEM leukemia, in the assay with NCI/ADR-RES ovarian and in the assay on HT29 colon was greater than 50 µM throughout. The TGI in the assay on EKVX NSCLC, with SF-295 CNS, in the assay on LOX IMVI melanoma, in the assay with PC-3 prostate, in the assay with CAKI-1 renal and in the assay on M14 melanoma was greater than 50 µM in each case. In addition, the TGI in the assay on HS 578T breast is greater than 50 µM.
For `Nc1ncnc2oc(C3OC(COC(=O)c4ccccc4)C(OC(=O)c4ccccc4)C3OC(=O)c3ccccc3)nc12` (stereo not given), the TGI in the assay on SK-MEL-28 melanoma, in the assay with DU-145 prostate, with OVCAR-8 ovarian, in the assay with CCRF-CEM leukemia, in the assay on NCI/ADR-RES ovarian and with HT29 colon was greater than 100 µM each time. The TGI in the assay on EKVX NSCLC, with SF-295 CNS, with LOX IMVI melanoma, in the assay on PC-3 prostate, in the assay on CAKI-1 renal and in the assay on M14 melanoma was greater than 100 µM throughout. Besides, the TGI with HS 578T breast was greater than 100 µM.
With `Cc1cc(N(CCC#N)CCC#N)ccc1/C(N=Nc1cccc(Cl)c1)=N/NC(=O)c1cc(Cl)ccc1O`, the TGI with SK-MEL-28 melanoma amounted to 49.9 µM; with DU-145 prostate, 42.6 µM; in the assay with OVCAR-8 ovarian it was 49.2 µM; in the assay on CCRF-CEM leukemia, 37.2 µM; in the assay on NCI/ADR-RES ovarian, 54.6 µM; in the assay on HT29 colon, 44.2 µM. For the same molecule, the TGI in the assay on EKVX NSCLC was 39.6 µM; with SF-295 CNS it was greater than 100 µM; with LOX IMVI melanoma, 42.2 µM; in the assay with PC-3 prostate, 46.2 µM; in the assay with CAKI-1 renal it was 44.8 µM; in the assay on M14 melanoma, 49.6 µM. The TGI in the assay with HS 578T breast is greater than 100 µM.
As for `Oc1[nH]c2ccccc2c1N=NC(=S)Nc1ccccc1Cl`, the TGI in the assay on SK-MEL-28 melanoma was found to be 75.6 µM; in the assay on DU-145 prostate, 58.5 µM; in the assay with OVCAR-8 ovarian it was 17.9 µM; with CCRF-CEM leukemia, 49.9 µM; in the assay on NCI/ADR-RES ovarian, 3.48 µM; in the assay on HT29 colon it was 21.9 µM. In addition, the TGI in the assay on EKVX NSCLC was 77.9 µM; with SF-295 CNS, 20.9 µM; with LOX IMVI melanoma, 27.4 µM; with PC-3 prostate, greater than 100 µM; in the assay on CAKI-1 renal it was 8.78 µM; with M14 melanoma, 14.9 µM. In addition, the TGI with HS 578T breast worked out at 56.1 µM.
As to `CCC(=O)C(CCN1CCC2(CCCc3ccccc32)CC1)(c1ccccc1)c1ccccc1`, the TGI in the assay on SK-MEL-28 melanoma is 14 µM; in the assay on DU-145 prostate, 11.6 µM; in the assay on OVCAR-8 ovarian it was 14 µM; with CCRF-CEM leukemia, greater than 100 µM; in the assay on NCI/ADR-RES ovarian it was 14.3 µM; in the assay with HT29 colon, 6.01 µM. The TGI is 17.6 µM with EKVX NSCLC; 4.9 µM in the assay with SF-295 CNS; 2.16 µM with LOX IMVI melanoma; 8.87 µM with PC-3 prostate; 14.5 µM with CAKI-1 renal; 4.56 µM with M14 melanoma. This molecule also came in with a TGI in the assay on HS 578T breast of 7.02 µM.
`CSC(=S)Nc1cccc(C)n1`: the TGI in the assay on SK-MEL-28 melanoma, in the assay with DU-145 prostate, in the assay with OVCAR-8 ovarian, in the assay on CCRF-CEM leukemia, in the assay with NCI/ADR-RES ovarian and in the assay on HT29 colon was greater than 100 µM in each case. For the same molecule, the TGI in the assay with EKVX NSCLC, with SF-295 CNS, in the assay on LOX IMVI melanoma, with PC-3 prostate, in the assay on CAKI-1 renal and with M14 melanoma was greater than 100 µM each time. In addition, in the assay with HS 578T breast, the TGI was greater than 100 µM.
Turning to `CC(=O)NC1C(OCc2ccccc2)OC(CO)C(O)C1OC(C)C(=O)NC(C)C(=O)NC(CCC(=O)NCCCCNc1c2ccccc2nc2cccc([N+](=O)[O-])c12)C(N)=O` (stereo not given), the TGI in the assay with SK-MEL-28 melanoma came to 0.409 µM; in the assay on DU-145 prostate it was 0.049 µM; in the assay with OVCAR-8 ovarian, 0.166 µM; in the assay on CCRF-CEM leukemia, 0.578 µM; in the assay with NCI/ADR-RES ovarian it was 0.524 µM; with HT29 colon it was 0.0362 µM. Also, the TGI amounted to 0.322 µM in the assay with EKVX NSCLC; 1.66 µM with SF-295 CNS; 0.548 µM with LOX IMVI melanoma; 0.663 µM in the assay with PC-3 prostate; 0.307 µM with CAKI-1 renal; 12.5 µM with M14 melanoma. Also, the TGI with HS 578T breast worked out at 0.562 µM.
Turning to `CCOC(=O)C1(C(=O)OCC)[C@@H](c2ccccc2)C2=NO[C@@H]3CCC[C@H]1[C@H]23`, the TGI in the assay on SK-MEL-28 melanoma was greater than 100 µM; in the assay with DU-145 prostate it was greater than 100 µM; in the assay on OVCAR-8 ovarian, greater than 100 µM; in the assay with CCRF-CEM leukemia, 78.7 µM; with NCI/ADR-RES ovarian, greater than 100 µM; in the assay with HT29 colon, greater than 100 µM. The TGI in the assay with EKVX NSCLC, in the assay on SF-295 CNS, in the assay on LOX IMVI melanoma, in the assay on PC-3 prostate, in the assay with CAKI-1 renal and with M14 melanoma was greater than 100 µM each time. Also, the TGI in the assay on HS 578T breast is greater than 100 µM.
Turning to `Fc1ccc(N2C(=S)SC(=Nc3ccccc3)C2=Nc2ccccc2)cc1`, the TGI with SK-MEL-28 melanoma is greater than 100 µM; in the assay with DU-145 prostate it was greater than 100 µM; in the assay with OVCAR-8 ovarian, greater than 100 µM; with CCRF-CEM leukemia it was greater than 46.4 µM; with NCI/ADR-RES ovarian, greater than 100 µM; in the assay with HT29 colon it was greater than 100 µM. The TGI with EKVX NSCLC, in the assay with SF-295 CNS, with LOX IMVI melanoma, in the assay on PC-3 prostate, in the assay on CAKI-1 renal and with M14 melanoma was greater than 100 µM throughout. In the assay on HS 578T breast, this molecule yielded a TGI greater than 100 µM.
